The values that follow are results of earlier work, collected in patent publication US20080014156A1, “PHOTOPROTECTANT COMPOSITION FOR PREVENTING SUNBURN AND SUN DAMAGE TO THE SKIN” (priority 2006, published 2008).

The conditions of this data set: relative to vitamin E.

As for `CC1=C(/C=C/C(C)=C/C=C/C(C)=C/C=C/C=C(C)/C=C/C=C(C)/C=C/C2=C(C)C(=O)[C@@H](O)CC2(C)C)C(C)(C)C[C@H](O)C1=O` [Astaxanthin], the “antioxidant effectiveness compared with vitamin E” value is “up to 550 times”.
